Experimental data reported in patent US12533348B2, “Ferroportin-inhibitors for the use in the treatment of transfusion-dependent beta-thalassemia (TDT)” (Vifor (International) AG, priority 2019, dated 2026).
Values joined by “and” are separate entries in the source; they are usually repeats but may differ in a detail not shown here. Equal entries are not always repeated.

Columns and labels:
[1] = system: Hbb^th3/+ mouse model of β-thalassemia intermedia; assay: Combination study: hemoglobin (HemoCue photometer); assay type: in vivo; settings: for Hb concentration: th3/+ mice, Fpn127 120 mg/kg QD p.o., mean
Method: One day after switching to lid a blood sample was taken by tail vein incision to determine the baseline Hb levels. Hb was measured using a HaemoCue® device. Hb was also measured on days 8, 15, and 22 in the morning before dosing. The animals were dosed p.o. D with 30 mg/kg DFX in 30% Kolliphor, 120 mg/kg Fpn127 in 0.5% C, or both for a total of 17 doses during the 23 days of study. 30% Kolliphor and 0.5% C were dosed as vehicles. The dose of DFX was administered at the beginning of the dark cycle (active phase) at 9:00 followed by 3 h of access to lid. Then, mice were dosed with Fpn127 (or 0.5% C) and were given access to sd for a 6 h period before switched back to lid. On the dosing was paused and mi had access to lid ad libitum.
Hb was measured on days 1, 8, 15 and 22. Individual Hb values were determined at the starting day of the experiment (day 1) and weekly thereafter during the experimental phase in the morning before the first daily dose. A blood sample was taken by tail vein incision and Hb was measured using a HemoCue® DM201 Hb photometer.

[2] = system: Hbb^th3/+ mouse model of β-thalassemia intermedia; assay: Combination study: complete blood counts (ProCyte Dx); assay type: in vivo
Method: Complete blood counts were performed on fresh EDTA-blood on an automated blood cell analyzer (ProCyte Dx®, IDEXX Laboratories) in-house.

[3] = system: Hbb^th3/+ mouse model of β-thalassemia intermedia; assay: Combination study: serum iron (MULTIGENT Iron assay), transferrin ELISA and calculated TSAT; assay type: in vivo
Method: […] Anesthetized animals were subsequently euthanized by cervical dislocation.
Serum levels of iron were determined in triplicates using MULTIGENT Iron assay (Abbott Diagnostics, Cat. 6K95). Serum Transferrin (TO was measured in duplicates using a mouse-specific ELISA according to the manufacturer's instructions (Abcam, Cat. ab157724). Transferrin saturation (TSAT) was calculated using the formula: […]

[4] = system: Hbb^th3/+ mouse model of β-thalassemia intermedia; assay: Combination study: serum EPO (DuoSet ELISA); assay type: in vivo
Method: (§1) On day 23 (study end) 1 hour after dosing blood was collected by retro-orbital bleeding from pre-terminally anesthetized mice into BD Microtainer Tubes (Cat. 365967 and 365975) for determination of serum iron, transferrin, erythropoietin and compound exposure. Anesthetized animals were subsequently euthanized by cervical dislocation.
(§2) [formula] Serum EPO was measured using a mouse-specific DuoSet ELISA according to the manufacturer's instructions (R&D Systems, Cat. DY959). Plasma concentrations of Fpn127 and DFX were measured at GVK Biosciences, Hyderabad, IN. Flow Cytometric Analysis of Intracellular ROS, Mitochondria, and PS Exposure

[5] = Combination study: plasma concentrations of Fpn127 and DFX (LC-MS/MS); assay type: in vivo, mouse
Method: as §1, §2
Plasma was collected 1 hour after dosing of DFX on day 23 for determination of compound concentration by LC-MS/MS. Plasma exposure of DFX was similar in animals dosed with DFX alone or in combination with Fpn127 (FIG. 11, Table 12). […] As expected, plasma levels of Fpn127 were low as plasma was sampled approximately 20 h after the last dose of Fpn127.

[6] = system: Hbb^th3/+ mouse model of β-thalassemia intermedia; assay: Combination study: flow cytometric analysis of intracellular ROS, mitochondria and PS exposure in mature RBC; assay type: in vivo
Method: In peripheral blood taken on day 22 by tail vein incision, ROS were detected with the indicator chloromethyl-2′,7′-dichlorodihydrofluorescein diacetate (CM-H2DCFDA, Invitrogen), the presence of mitochondria was detected with MitoTracker Deep Red FM (Invitrogen), and PS exposure was detected using the Annexin V Apoptosis Detection Kit (Invitrogen) in mature RBC labelled with Ter119 and CD71 antibodies.
For all analysis, cells were analyzed on a CANTOII cytometer (BD Biosciences) and data were analyzed using FlowJo® software (FlowJo, LLC, version 10.2).

[7] = system: Hbb^th3/+ mouse model of β-thalassemia intermedia; settings: in vivo
Method: (§3) The aim of this study was to test whether the concurrent use of the iron chelator DFX administered once daily (QD) alone at 30 mg/kg or in combination with Fpn127 administered QD at 120 mg/kg for 3 weeks is causing any therapeutic interactions in a mouse model of β-thalassemia intermedia (Hbb^th3/+; B6; 129P—b1tm1Unc-b2tm1Unc/J, Jackson Laboratories, Stock Number: 002683).
(§4) Animals were euthanized 1 h after the last dose of DFX on study day 23 (dosing day 17).
(§5) On the final study day (day 23), spleen, liver, and kidneys were collected and snap frozen in liquid nitrogen for further analysis, as outlined below. Wet weight of spleen, liver, and kidneys were recorded.
(§6) Content of total Fe was determined in pieces of spleens, livers, and kidneys by ICP-OES in the Analytical Development group of Vifor (International) Ltd., St. Gallen.
(§7) Individual wet weights of organs were recorded. Individual values of total Fe were measured in livers, spleens, and kidneys. Individual values of total Fe content and concentration were calculated. Mean±SD of total Fe concentration and content in livers, spleens, and kidneys was calculated for each group.

[8] = system: Hbb^th3/+ mouse model of β-thalassemia intermedia; assay: Combination study: organ weights and tissue iron (ICP-OES) in liver, spleen, kidney; settings: for relative spleen weight: percent of body weight; for relative spleen weight / kidney Fe conc. / liver Fe conc. / spleen Fe conc.: th3/+ mice, DFX 30 mg/kg QD, Fpn127 120 mg/kg QD p.o., end of study (day 23), mean
Method: as §3, §4, §5, §6, §7

[9] = th3/+ mice, DFX 30 mg/kg QD, Fpn127 120 mg/kg QD p.o., whole blood day 23, all animals, mean
[10] = th3/+ mice, all animals, mature RBCs in whole blood at end of study (pre-terminally d22)

## O=C(NCc1ncccc1F)c1coc(CCNCCc2nc3ccccc3[nH]2)n1 [Fpn127]
[1]; Hbb^th3/+ mice, by the study end, Fpn127 120 mg/kg QD, DFX 30 mg/kg QD
  change of Hb levels compared to vehicle-treated mice: 13 g/L
[1]; Hbbth3/+ animals (FIG. 6)
  Hb levels during the study duration: increased with time
[1]; DFX 30 mg/kg QD, day 1 (before dosing), all animals
  Hb concentration: 85 g/L
[1]; DFX 30 mg/kg QD, day 1 (before dosing), females
  Hb concentration: 85 ± 4 g/L and 85 g/L
[1]; DFX 30 mg/kg QD, day 1 (before dosing), males
  Hb concentration: 85 ± 6 g/L and 85 g/L
[1]; DFX 30 mg/kg QD, day 8, all animals
  Hb concentration: 92 g/L
[1]; DFX 30 mg/kg QD, day 8, females
  Hb concentration: 93 g/L
[1]; DFX 30 mg/kg QD, day 8, males
  Hb concentration: 90 g/L
[1]; DFX 30 mg/kg QD, day 15, all animals
  Hb concentration: 96 g/L
[1]; DFX 30 mg/kg QD, day 15, females
  Hb concentration: 99 g/L
[1]; DFX 30 mg/kg QD, day 15, males
  Hb concentration: 93 g/L
[1]; DFX 30 mg/kg QD, day 22, all animals
  Hb concentration: 98 g/L
[1]; DFX 30 mg/kg QD, day 22, females
  Hb concentration: 101 g/L
[1]; DFX 30 mg/kg QD, day 22, males
  Hb concentration: 95 g/L
[2]; Hbb^th3/+ mice, day 23 (FIG. 8), for DFX alone: total leukocyte and lymphocyte counts
  leukocyte, neutrophil and lymphocyte counts: reduced to levels similar to WT
[2]; Hbbth3/+ mice, day 23 (FIG. 7)
  RBC indices (RBC counts, hematocrit, RDW, reticulocyte counts): significantly improved
[2]; [9]
  HCT: 31.2%
  Leukocytes: 5.7 10E3/μL
  Lymphocytes: 5.0 10E3/μL
  MCH: 9.9 pg
  MCHC: 27.4 g/dL
  MCV: 36.4 fL
  Neutrophils: 0.3 10E3/μL
  RBC: 9.9 10E6/μL
  RDW: 39.1%
  RET: 1332 10E3/μL
  Ret-He: 11.8 pg
[3]; Hbbth3/+ mice, day 23 (FIG. 10)
  effect on TSAT: significantly decreased
[3]; calculated from Tf and serum iron, th3/+ mice, day 23, 1 h after last DFX dose, approx. 20 h after last Fpn127 dose, all animals, mean
  TSAT: 17.7%
[3]; day 23, last Fpn127 dose given 20 h before (FIG. 10)
  effect on serum iron vs vehicle treated th3/+ and WT animals: significantly reduced
[3]; th3/+ mice, day 23, 1 h after last DFX dose (30 mg/kg), approx. 20 h after last Fpn127 dose (120 mg/kg), all animals, mean
  serum iron: 19.9 ± 3.3 µM and 19.9 µM
[4]; Hbbth3/+ animals, day 23 (FIG. 10)
  effect on EPO levels: reduced EPO levels
[4]; serum, th3/+ mice, day 23, DFX 30 mg/kg QD, Fpn127 120 mg/kg QD p.o., all animals, mean
  EPO: 3938 ± 1167 pg/mL and 3938 pg/mL
[5]; approximately 20 h after the last dose of Fpn127
  plasma levels of Fpn127: low
[5]; day 23 (FIG. 11)
  plasma exposure of Fpn127, in presence vs absence of DFX: comparable
[5]; th3/+ mice, all animals, plasma collected on day 23, approximately 20 h after the last dose of Fpn127, LC-MS/MS
  Plasma exposure of Fpn127 at the end of the study (mean): 68 ng/mL
[6]; Hbbth3/+ mice (FIG. 12)
  proportion of PS-positive RBC (annexin V staining): significantly decreased
[6]; Hbbth3/+ mice, summary
  RBC function/quality (oxidative stress, apoptosis and maturation): improved RBC quality
[6]; compared to Hbbth3/+ mice treated with vehicle or DFX alone, CM-H2DCFDA (FIG. 12)
  proportion of ROS-producing RBC: significantly decreased
[6]; compared to vehicle-treated and DFX-treated Hbbth3/+ mice (FIG. 12)
  RBC containing mitochondria: less RBC containing mitochondria
[6]; [10]
  % Annex in V-positive RBCs (mean): 0.29%
  % Mito Tracker-positive RBCs (mean): 0.19%
  % ROS-positive RBCs (mean): 32.82%
[7]
  effect on kidney weight vs vehicle-treated Hbbth3/+ mice: no effect on kidney weight
  effect on liver weight vs vehicle-treated Hbbth3/+ mice: no effect on liver weight
[8]; end of study (FIG. 3)
  effect on total liver iron concentration vs vehicle-treated th3/+ mice: no effect on liver iron concentration
[8]; end of study (FIG. 4)
  effect on total spleen iron concentration vs vehicle-treated th3/+ mice: significantly increased
[8]; end of study (FIG. 5)
  effect on total kidney iron concentration vs vehicle-treated Hbbth3/+ mice: significantly reduced
[8]; end of study d23 (FIG. 4)
  effect on relative spleen weight in th3/+ animals: significantly reduced
[8]; all animals
  relative spleen weight: 0.99±0.18% and 0.99%
  kidney Fe conc.: 126.7 ± 23.6 µg/g and 126.7 µg/g
  liver Fe conc.: 332.2 ± 75.2 µg/g and 332.2 µg/g
  spleen Fe conc.: 2738.0 ± 300.8 µg/g and 2738.0 µg/g
[8]; females
  relative spleen weight: 1.12%
  kidney Fe conc.: 138.9 µg/g
  liver Fe conc.: 371.8 µg/g
  spleen Fe conc.: 2713.0 µg/g
[8]; males
  relative spleen weight: 0.86%
  kidney Fe conc.: 114.5 µg/g
  liver Fe conc.: 292.5 µg/g
  spleen Fe conc.: 2760.0 µg/g
